From US6168939A, “Endopeptidase produced by Lactobacillus helveticus” (priority 1995, dated 2001)
“Also recorded” adds a separate entry of the source. Numbered stars: 1 amine (or outer) side, 2 acyl side, 3 side chain; on linkers, the order of the positions; unused ones are H or OH. Ends that are not written are not given here. Peptide text beside a SMILES is read from it. * marks the point of attachment. pNA = O=[N+]([O-])c1ccc(N*)cc1; Suc = O=C(CCC(=O)[*:2])[*:1]; MeOSuc = COC(=O)CCC(=O)*

T1: endopeptidase produced by Lactobacillus helveticus (Lactobacillus helveticus, UniProt Q6UP05)
T1 construct: N-terminus […]
T1 sequence (Q6UP05 1-643): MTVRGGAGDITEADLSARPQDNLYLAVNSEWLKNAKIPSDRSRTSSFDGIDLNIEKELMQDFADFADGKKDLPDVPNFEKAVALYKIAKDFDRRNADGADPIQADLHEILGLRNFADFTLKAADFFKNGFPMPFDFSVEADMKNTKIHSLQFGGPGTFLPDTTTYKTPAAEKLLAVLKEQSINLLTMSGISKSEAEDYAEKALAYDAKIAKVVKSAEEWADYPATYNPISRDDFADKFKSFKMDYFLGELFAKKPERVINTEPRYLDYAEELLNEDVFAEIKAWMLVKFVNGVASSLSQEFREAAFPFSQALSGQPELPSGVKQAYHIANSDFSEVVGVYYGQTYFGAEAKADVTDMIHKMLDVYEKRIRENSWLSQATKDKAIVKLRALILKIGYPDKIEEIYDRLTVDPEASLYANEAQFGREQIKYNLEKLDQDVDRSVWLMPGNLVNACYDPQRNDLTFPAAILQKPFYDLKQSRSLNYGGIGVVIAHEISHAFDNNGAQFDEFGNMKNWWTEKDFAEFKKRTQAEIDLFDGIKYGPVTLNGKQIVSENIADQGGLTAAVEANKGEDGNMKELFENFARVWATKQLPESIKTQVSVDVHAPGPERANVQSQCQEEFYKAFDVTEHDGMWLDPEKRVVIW

B1: β-Casein: casein protein substrate (protein, UniProt P02666 16-224, looked up)
Beta-casein: RELEELNVPGEIVESLSSSEESITRINKKIEKFQSEEQQQTEDELQDKIHPFAQTQSLVYPFPGPIPNSLPQNIPPLTQTPVVVPPFLQPEVMGVSKVKEAMAPKHKEMPFPKYPVEPFTESQSLTLTDVENLHLPLPLLQSWMHQPHQPLPPTVMFPPQSVLSLSQSKVLPVPQKAVPYPQRDMPIQAFLLYQEPVLGPVRGPFPIIV
B2: α51 -Casein: casein protein substrate (probably αs1-casein) (protein, UniProt P02662 16-214, looked up)
Alpha-S1-casein: RPKHPIKHQGLPQEVLNENLLRFFVAPFPEVFGKEKVNELSKDIGSESTEDQAMEDIKQMEAESISSSEEIVPNSVEQKHIQKEDVPSERYLGYLEQLLRLKKYKVPQLEIVPNSAEERLHSMKEGIHAQQKEPMIGVNQELAYFYPELFRQFYQLDAYPSGAWYYVPLGTQYTDAPSFSDIPNPIGSENSEKTTMPLW

Target: T1, endopeptidase produced by Lactobacillus helveticus
Assay: not given
Type: biochemical
Details: 0.001 to 2.0 mM inhibitor, 30 min. at 4° C.; 1 mM Tyr-Gly-Gly-Phe-Met, pH 7.0, 30° C.
Method: (§1) The influences of enzyme inhibitors on the-activity of the endopeptidase of the present invention was determined. The purified endopeptidase (0.5 μg protein/ml) in 40 mM HEPES, pH7.0, was incubated for 30 min. at 4° C. with 0.001 to 2.0 mM enzyme inhibitors. After pre-incubating the enzyme mixture for 5 min. at 30° C., 1 mM Tyr-Gly-Gly-Phe-Met (SEQ ID NO: 2) was added to start the reaction and the mixture was incubated for 20 min. at 30° C. The reaction was stopped by 10% acetic acid.
The enzyme activity was determined by reversed phase chromatography.

Row | Molecule | inhibition of endopeptidase activity by enzyme inhibitors
1 | O=S(=O)(F)Cc1ccccc1 [phenylmethylsulfonyl fluoride] | no inhibition
2 | c1cnc2c(c1)ccc1cccnc12 [1,10-phenanthroline] | inhibited; also recorded: inhibition
3 | O=S(=O)(O)c1cc[c]([Hg][Cl])cc1 [p-CMBS, p-chloromercuribenzenesulfonic acid] | inhibited; also recorded: inhibition

Same assay, conditions: pH 7

Row | Molecule | inhibition of endopeptidase activity by enzyme inhibitors
4 | O=C(O)CN(CCN(CC(=O)O)CC(=O)O)CC(=O)O [EDTA, ethylenediaminetetraacetic acid] | inhibited; also recorded: inhibition
5 | O=C(O)CI [iodoacetic acid] | no inhibition

Target: T1, endopeptidase produced by Lactobacillus helveticus
Assay: Substrate specificity: hydrolysis of substrates by the endopeptidase
Type: biochemical
Parameters: key: + represents that a substrate was hydrolyzed; - represents that a substrate was not hydrolyzed
Details: 2 to 5 mM substrate, 50 mM HEPES pH 7.0, 30° C., 5.0 hrs
Method: The substrate specificity of the endopeptidase of the present invention was determined. In 200 μl of 2 to 5 mM substrate in 50 mM HEPES buffer, pH 7.0, 10 μl of the endopeptidase solution of the present invention in 50 mM HEPES buffer, pH 7.0, at five μg/ml was added and incubated at 30° C. for 5.0 hrs. Then, the reaction mixture was applied to reversed phase chromatography and eluted using linear increase of concentration of acetonitrile in 0.1% trifluoroacetic acid from zero to 60%. The hydrolysis was determined from the decrease of the peak area of the substrate and/or the appearance of a new peak(s) at 214 nm on the chromatogram.

Row | Molecule | Hydrolysis
6 | Pro-Lys-Gly-Gly (PKGG) | -
7 | NCCCC[C@H](N)C(=O)Nc1ccc([N+](=O)[O-])cc1 [Lys-pNA] | -
8 | β-Casein, f108-113: β-Casein fragment 108-113, 6 amino acid residues (EMPFPK; UniProt P02666 123-128, looked up, fragment) | +
9 | Parathyroid hormone, human, f1-34: human parathyroid hormone fragment 1-34, 34 amino acid residues | +
10 | Z-Phe-Ala | -
11 | COC(=O)CCC(=O)N[C@@H](CCCNC(=N)N)C(=O)N1CCC[C@H]1C(=O)N[C@@H](Cc1ccc(O)cc1)C(=O)Nc1ccc([N+](=O)[O-])cc1 [MeO-Suc-Arg-Pro-Tyr-pNA] (MeOSuc-Arg-Pro-Tyr-pNA) | -
12 | Leu-Leu | -
13 | Dynorphin A | +
14 | Phe-Val | -
15 | O=C(Nc1ccc([N+](=O)[O-])cc1)[C@@H]1CCCN1 [Pro-pNA] | -
16 | O=C(O)CCC(=O)N[C@@H](Cc1ccccc1)C(=O)Nc1ccc([N+](=O)[O-])cc1 [Suc-Phe-pNA] | -
17 | β-Casein, f203-209: β-Casein fragment 203-209, 7 amino acid residues (GPFPIIV; UniProt P02666 218-224, looked up, fragment) | +
18 | Ala-Pro-pNA | -
19 | Parathyroid hormone, human, f13-34: human parathyroid hormone fragment 13-34, 22 amino acid residues (KHLNSMERVEWLRKKLQDVHNF; Parathyroid hormone; UniProt P01270 44-65, looked up, fragment) | +
20 | β-Casomorphin | -
21 | CSCC[C@H](NC(=O)[C@H](CC(C)C)NC(=O)CNC(=O)[C@H](Cc1ccccc1)NC(=O)[C@H](Cc1ccccc1)NC(=O)[C@H](CCC(N)=O)NC(=O)[C@H](CCC(N)=O)NC(=O)[C@@H]1CCCN1C(=O)[C@H](CCCCN)NC(=O)[C@@H]1CCCN1C(=O)[C@@H](N)CCCNC(=N)N)C(N)=O [Substance P] | +
22 | Neurotensin | +
23 | RPPGFSPFR [Bradykinin] | +
24 | Ala-Ala-Ala-Ala-Ala-Ala | +
25 | κ-Casein: casein protein substrate | -
26 | Pro-Gly-Gly | -

Row | Molecule | Hydrolysis
27 | Bzl-Cys-pNA | -
28 | Angiotensin (DRVYIHPFHL; Angiotensin-1; UniProt P01019 25-34, looked up) | +
29 | Gly-Pro-Gly-Gly (GPGG) | -
30 | Ala-Ala-Ala-Ala-Ala | +
31 | Pro-Gly-Lys-Ala-Arg (PGKAR) | -
32 | Ala-Ala-Ala-Ala (AAAA) | +
33 | Insulin β-chain | +
34 | Parathyroid hormone, human, f1-38: human parathyroid hormone fragment 1-38, 38 amino acid residues (SVSEIQLMHNLGKHLNSMERVEWLRKKLQDVHNFVALG; Parathyroid hormone; UniProt P01270 32-69, looked up, fragment) | -
35 | Gly-Pro-Arg-Pro (GPRP) | -
36 | Leu-Leu-Leu | +
37 | CC(C)C[C@H](NC(=O)[C@@H]1CCCN1C(=O)[C@H](C)NC(=O)[C@H](C)NC(=O)CCC(=O)O)C(=O)Nc1ccc([N+](=O)[O-])cc1 [Suc-Ala-Ala-Pro-Leu-pNA] (Suc-AAPL-pNA) | -
38 | Parathyroid hormone, human, f1-44: human parathyroid hormone fragment 1-44, 44 amino acid residues (SVSEIQLMHNLGKHLNSMERVEWLRKKLQDVHNFVALGAPLAPR; Parathyroid hormone; UniProt P01270 32-75, looked up, fragment) | -
39 | Met-Gly-Gly | -
40 | Phe-Met | -
41 | CSCC[C@H](NC(=O)[C@H](Cc1ccccc1)NC(=O)CNC(=O)CNC(=O)[C@@H](N)Cc1ccc(O)cc1)C(=O)O [Met-Enkephalin] | +
42 | Pro-Ala | -
43 | Leu-Gly-Gly | -
44 | Tyr-Gly-Gly | -
45 | B1 | -
46 | B2 | -

Same assay, conditions: substrate + LAP (leucine aminopeptidase); pH 7.0, 30° C., 5.0 hrs

Row | Molecule | Hydrolysis
47 | COC(=O)CCC(=O)N[C@@H](CCCNC(=N)N)C(=O)N1CCC[C@H]1C(=O)N[C@@H](Cc1ccc(O)cc1)C(=O)Nc1ccc([N+](=O)[O-])cc1 [MeO-Suc-Arg-Pro-Tyr-pNA] (MeOSuc-Arg-Pro-Tyr-pNA) | +

Target: T1, endopeptidase produced by Lactobacillus helveticus
Assay: Influence of metal ions on endopeptidase activity
Type: biochemical
Details: method according to Test example 7
Method: as §1
The influences of metal ions to the activity of the endopeptidase of the present invention was determined similarly by the method according to Test example 7. The enzyme activity was inhibited by Cu^2+, Zn^2+ and Fe^2+.

Row | Molecule | inhibition of endopeptidase activity by metal ions
48 | [Zn+2] [Zn^2+] | inhibited
49 | [Fe+2] [Fe^2+] | inhibited
50 | [Cu+2] [Cu^2+] | inhibited
